Values quoted from earlier work, collected in US20100286262A1, “PTGS2 HAPLOTYPES” (priority 2007, published 2010).
Read-outs that look alike come from different tables or passages of the source.

What was measured:
[1] = adjuvant setting; cited from earlier work
[2] = system: colorectal cancer (CRC) risk; conditions: cited from earlier work

| SMILES | Cardiotoxicity [1] | RR of CRC with aspirin use ([2]; cancers with weak or absent COX-2 expression, 0.73-1.26) | RR of CRC with aspirin use ([2]; tumours overexpressing COX-2, 0.52-0.78) |
| --- | --- | --- | --- |
| O=c1[nH]cc(F)c(=O)[nH]1 [5-fluorouracil] | 2-4% | – | – |
| CC(=O)Oc1ccccc1C(=O)O [aspirin] | – | 0.96 | 0.64 |
